Measurements as given in US7638055B2, “Sludge quality” (Rhodia Operations, priority 2004, dated 2009).
Where two headings read alike, the source gives them in different places.

How the values were obtained:
[1] = tested on: protozoans and other higher organisms; settings: 2 and 4 mg/l/day Compound X, treated sludge relative to untreated
Source text: (§1) A series of semi-continuous chemostat reactors was constructed to simulate wastewater treatment processes.
(§2) The central part of the equipment is the biological chemostat reactor 1. The reactor vessel 2 is made of glass, with an internal volume of 10 liters and is fitted with pH 3 and dissolved oxygen 4 sensors and an air sparge 5. This contains the sludge, which is, essentially, a mass of typical wastewater treatment microorganisms. The reactor operates at an ambient temperature (approximately 20° C.).
(§3) Simulated wastewater 13 is contained in a separate vessel 6 and maintained at 4° C. to prevent microbial spoilage. It is transferred into the reactor via a supply line 7 and a peristaltic pump 8.
(§4) A recirculating line 9 is provided on the reactor comprising a length of flexible silicone tubing and a peristaltic pump 10. The peristaltic pump extracts the sludge from the reactor into the recirculation line. The candidate water-soluble biocide is introduced into this line 9 through a needle 11, which is fed by a syringe pump 12. Using this system it is possible to achieve “flash mixing” which ensures rapid contact of the water-soluble biocide with the sludge microorganisms. […]
(§5) Compound X was evaluated in the test. […] Two concentrations were evaluated: 2 and 4 milligrams per liter per day, as well as a control with no treatment by Compound X.

[2] = tested on: filamentous bacteria in the sludge; settings: 2 and 4 mg/l/day Compound X, flash mixing, vs untreated control, 52 day experiment
Source text: as §1, §2, §3, §4, §5

[3] = tested on: filamentous bacteria; settings: for Observations (filamentous bacteria): sample 48 days after start up, magnification x220
Experimental: Samples were taken from the semi-continuous reactors described in Example 1, 48 days after the start up of the trial.
A sample of each of the Compound X concentrations tested in the reactors of Example 1 was evaluated in this test. Accordingly, samples with 2 and 4 milligrams per liter per day treatment of Compound X were tested, as well as a control with no treatment by Compound X.
The samples were observed through phase contrast microscope magnification×220.

Substance: tetrakis(hydroxymethyl)phosphonium sulphate [Compound X]
- concentration of protozoans and other higher organisms in the sludge [1]: significantly higher concentration of protozoans and other higher organisms
- filamentous bacteria in the sludge [2]: substantially absent
- Observations (filamentous bacteria) ([3]; 2 mg/l/day): No filamentous bacteria present,
- Observations (filamentous bacteria) ([3]; 4 mg/l/day): No filamentous bacteria present,
- reduction of filamentous bacteria and sludge settling ([3]; two doses of 4 mg/l/day (4 mg/l dose on two consecutive days)): Reduction of filamentous bacteria and thus improved sludge settling
- level of filaments after treatment was stopped ([3]; two doses of 4 mg/l/day, without further treatment): remained low for more than one week
